Test results as given in ChEMBL document CHEMBL6114991, “Design, synthesis, and biological evaluation of novel quinoline carboxylic acid based styryl/alkyne hybrid molecule as a potent anti-adipogenic and antidyslipidemic agent via activation of Wnt/β-catenin pathway” (Eur J Med Chem, 2025).
Active and inactive are the calls of the source. No cut-off for these calls is given here.

Experiments:
[1] = tested on: 3T3-L1; experiment: Anti-adipogenic activity in mouse 3T3-L1 cells assessed as suppression of adipogenesis at 20 uM measured for 72 hrs by oil red O staining based analysis; assay type: functional
[2] = tested on: 3T3-L1; experiment: Anti-adipogenic activity in MDI-induced mouse 3T3-L1 cells assessed as suppression of adipogenesis at 0.3 uM by oil red O staining based analysis; assay type: functional, cell-based; conditions: time 72.0 hrs
[3] = tested on: 3T3-L1; experiment: Cytotoxicity against mouse 3T3-L1 cells assessed as cell viability upto 50 uM incubated for 48 hrs by MTT assay; assay type: toxicity, cell-based; conditions: 3t3-l1, 48 h
[4] = tested on: 3T3-L1; experiment: Inhibition of adipogenesis in mouse 3T3-L1 cells assessed as downregulation of FASN expression at 10 uM measured at upto 3 days by immunoblotting analysis; assay type: functional, cell-based; conditions: time <= 3.0 day
[5] = tested on: 3T3-L1; experiment: Inhibition of adipogenesis in mouse 3T3-L1 cells assessed as downregulation of FASN expression at 10 uM measured at upto 7 days by immunoblotting analysis; assay type: functional, cell-based; conditions: time <= 7.0 day
[6] = tested on: 3T3-L1; experiment: Inhibition of adipogenesis in mouse 3T3-L1 cells assessed as downregulation of FABP4 expression at 10 uM measured at upto 5 days by immunoblotting analysis; assay type: functional, cell-based; conditions: time <= 5.0 day
[7] = tested on: 3T3-L1; experiment: Induction of cell cycle arrest in mouse 3T3-L1 cells assessed as reduction in number of cells at G1 phase at 10 uM incubated for 16 to 24 hrs by flow cytometry analysis; assay type: functional, cell-based; conditions: time 16-24 hrs
[8] = tested on: 3T3-L1; experiment: Induction of cell cycle arrest in mouse 3T3-L1 cells assessed as reduction in cyclin D3 level at 10 uM incubated for 16 to 24 hrs by immunoblotting analysis; assay type: functional, cell-based; conditions: time 16-24 hrs
[9] = tested on: 3T3-L1; experiment: Induction of cell cycle arrest in mouse 3T3-L1 cells assessed as reduction in cyclin D1 level at 10 uM incubated for 16 to 24 hrs by immunoblotting analysis; assay type: functional, cell-based; conditions: time 16-24 hrs
[10] = tested on: 3T3-L1; experiment: Anti-adipogenic activity in mouse 3T3-L1 cells assessed as increase in GSK3beta mRNA expression at 10 uM incubated for 16 to 24 hrs; assay type: functional, cell-based; conditions: time 16-24 hrs
[11] = Cmax in Golden Syrian hamster at 100 mg/kg, po measured upto 24 hrs by LC-MS/MS analysis; assay type: ADME, organism-based, Mesocricetus auratus; conditions: in vivo
[12] = Tmax in Golden Syrian hamster at 100 mg/kg, po measured upto 24 hrs by LC-MS/MS analysis; assay type: ADME, organism-based, Mesocricetus auratus; conditions: in vivo
[13] = Half life in Golden Syrian hamster at 100 mg/kg, po measured upto 24 hrs by LC-MS/MS analysis; assay type: ADME, organism-based, Mesocricetus auratus; conditions: in vivo
[14] = tested on: Syrian golden hamster; experiment: Anti-dyslipidemic activity in HFD-induced Golden Syrian hamster model assessed as decrease in eWAT accumulation at 100 mg/kg, po administered for 7 days; assay type: functional, organism-based; conditions: Mesocricetus auratus, time 7.0 day
[15] = Toxicity in Golden Syrian hamster assessed as reduction in TC level in serum at 100 mg/kg, po administered for 7 days; assay type: organism-based, Mesocricetus auratus; conditions: in vivo, 168 h, time 7 day

Cmax [11]: 17700 ng/mL | Tmax [12]: 0.25 h | half-life [13]: 3.64 h
SMILES: Cc1ccc(/C=C/c2ccc(-c3cc(C(=O)O)c4cc(F)ccc4n3)cc2)cc1
Activity [1]: 70% | Activity [2]: Active | Activity [3]: Non-toxic | inhibition [4]: Active | inhibition [5]: Active | inhibition [6]: Active | Activity [7]: Active | Activity [8]: Active | Activity [9]: Active | Activity [10]: Active | Activity [14]: Active | Activity [15]: Non-toxic
